{"source": "patent US20240261417A1", "about": "“SOS1 DEGRADING AGENT AND PREPARATION METHOD THEREFOR AND APPLICATION THEREOF” (SHANGHAI LEADINGTAC PHARMACEUTICAL CO. LTD., priority 2021, published 2024)", "key": {"[1]": {"test_system": "KRAS G12D mutant human metastatic pancreatic adenocarcinoma cells AsPC-1", "assay": "3D cell proliferation inhibition assay, AsPC-1", "type": "cell-based", "conditions": "Homo sapiens, ASPC1, 168 h, 7 days, CTG", "experimental": "(§1) Inhibition of 3D cell proliferation by the compounds was investigated on KRAS G12C mutant human non-small cell lung cancer cells NCI-H358 (ATCC or Stem Cell Bank, Chinese Academy of Sciences), KRAS G12D mutant human metastatic pancreatic adenocarcinoma cells AsPC-1 (ATCC), KRAS G12V mutant human lung adenocarcinoma cells NCI-H441 (ATCC), and KRAS G13D mutant human colorectal adenocarcinoma epithelial cells DLD-1 (ATCC). The specific procedures were as follows:\n(§2) 200 nL of compound solution diluted in a gradient was added to corresponding microwells of a 384-well low-adsorption microwell plate (Corning, 3657) using an Echo sonic pipetting system (Labcyte, Echo 550), so that the final concentration of the test compound in the reaction system was in a range of 20000 nM-0.008 nM. Then 40 μL of cells at a certain density were added to the corresponding microplate. In addition to test wells for the test compounds, both a DMSO control well and a medium control well were set, with the DMSO control well containing DMSO and cells and the medium well containing only medium. After sample loading, the plate cover was applied, and the 384-well low-adsorption microplate was incubated in an incubator at 37° C. with 5% carbon dioxide for 7 days. After 7 days, the microplate was taken out, and 40 μL of CTG reagent (Promega, G9683) was added to each well. The plate was incubated at room temperature for 30 min and read on a microplate reader EnVision using the chemiluminescence program. The inhibition rates of the compounds at each concentration were calculated by the formula for the percentage inhibition of cell proliferation: inhibition rate %=(mean value of DMSO control group−single concentration reading value of compound)/(mean value of DMSO control group−mean value of medium control group)×100, and then nonlinear curve fitting was performed by GraphPad Prism 8 in the logarithmic concentration-inhibition rate to obtain the IC50 values of the compounds."}, "[2]": {"test_system": "KRAS G13D mutant human colorectal adenocarcinoma epithelial cells DLD-1", "assay": "3D cell proliferation inhibition assay, DLD-1", "type": "cell-based", "conditions": "Homo sapiens, DLD-1, 168 h, 7 days, CTG", "experimental": "as §1, §2"}, "KRAS-G12C/SOS1": {"biological_target": "T1, KRAS-G12C/SOS1 (Homo sapiens, UniProt Q07889)", "T1 construct": "purchased Cisbio 63ADKOOOCB16PEG", "T1 sequence (Q07889 1-1333)": "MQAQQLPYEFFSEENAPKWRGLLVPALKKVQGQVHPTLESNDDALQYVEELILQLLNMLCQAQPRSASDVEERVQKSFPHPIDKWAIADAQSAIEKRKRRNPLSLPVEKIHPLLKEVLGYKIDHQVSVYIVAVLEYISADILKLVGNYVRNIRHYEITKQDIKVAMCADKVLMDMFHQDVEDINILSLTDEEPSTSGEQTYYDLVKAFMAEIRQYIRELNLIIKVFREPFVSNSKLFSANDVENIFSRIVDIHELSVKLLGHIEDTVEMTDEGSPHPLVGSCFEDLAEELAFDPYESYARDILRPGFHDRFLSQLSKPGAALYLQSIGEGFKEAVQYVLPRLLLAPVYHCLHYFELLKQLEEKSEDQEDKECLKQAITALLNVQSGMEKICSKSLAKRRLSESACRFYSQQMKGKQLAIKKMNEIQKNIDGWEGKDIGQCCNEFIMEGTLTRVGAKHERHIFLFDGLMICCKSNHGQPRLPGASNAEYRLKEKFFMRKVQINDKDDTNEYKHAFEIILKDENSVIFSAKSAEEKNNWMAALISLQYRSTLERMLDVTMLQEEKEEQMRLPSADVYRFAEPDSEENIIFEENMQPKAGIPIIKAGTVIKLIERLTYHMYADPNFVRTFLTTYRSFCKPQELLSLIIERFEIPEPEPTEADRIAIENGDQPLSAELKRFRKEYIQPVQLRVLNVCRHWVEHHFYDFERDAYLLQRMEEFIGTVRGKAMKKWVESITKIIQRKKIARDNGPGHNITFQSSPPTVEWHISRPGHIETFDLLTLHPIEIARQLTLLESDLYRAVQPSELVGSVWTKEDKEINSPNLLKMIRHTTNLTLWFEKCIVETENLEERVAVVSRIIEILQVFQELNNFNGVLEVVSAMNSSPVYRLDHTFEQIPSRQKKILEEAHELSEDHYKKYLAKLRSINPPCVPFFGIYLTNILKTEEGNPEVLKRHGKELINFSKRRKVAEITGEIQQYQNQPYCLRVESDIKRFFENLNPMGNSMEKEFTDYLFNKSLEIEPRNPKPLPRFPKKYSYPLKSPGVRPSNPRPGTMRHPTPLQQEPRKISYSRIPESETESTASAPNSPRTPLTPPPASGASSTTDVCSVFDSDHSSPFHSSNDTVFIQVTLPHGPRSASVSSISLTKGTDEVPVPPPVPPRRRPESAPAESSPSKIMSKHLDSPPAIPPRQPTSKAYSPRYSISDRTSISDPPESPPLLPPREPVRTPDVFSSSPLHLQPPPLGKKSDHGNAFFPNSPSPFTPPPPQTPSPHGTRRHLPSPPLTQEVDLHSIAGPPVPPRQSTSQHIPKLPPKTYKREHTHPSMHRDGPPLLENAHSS", "assay": "KRAS-G12C/SOS1 binding assay (HTRF)", "conditions": "inhibition of KRAS-G12C/SOS1 binding", "in_short": "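HTRF competition assay with Tag1-SOS1 and Tag2-KRAS-G12C (10 μM GTP). Compounds at 10000 nM-0.04 nM final (0.5% DMSO), incubated 15 min at 25° C, then anti-tag Tb3+/XL665 antibodies added for 3 h on ice. The 665/620 nm ratio was compared with control and IC50 derived by nonlinear fit.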"}}, "data": [{"smiles": "COc1cc2nc(C)nc(N[C@H](C)c3cc(N)cc(C(F)(F)F)c3)c2cc1[C@H]1CC[C@H](C(=O)N2CCC(CCOCC3CCN(C(=O)c4ccc(Cl)c(N5CCC(=O)NC5=O)c4)CC3)CC2)CC1", "note": "[Example 19, 1-(5-(4-((2-(1-((1R,4R)-4-(4-(((R)-1-(3-amino-5-(trifluoromethyl)phenyl)ethyl)amino)-7-methoxy-2-methylquinazolin-6-yl)cyclohexane-1-carbonyl)piperidin-4-yl)ethoxy)methyl)piperidine-1-carbonyl)-2-chlorophenyl)dihydropyrimidine-2,4(1H,3H)-dione]", "values": [{"measurement": "IC50", "setting": "[1]", "result": "100 to 1000", "unit": "nM"}, {"measurement": "IC50", "setting": "[2]", "result": "100 to 1000", "unit": "nM"}]}, {"smiles": "COc1cc2nc(C)nc(N[C@H](C)c3cc(N)cc(C(F)(F)F)c3)c2cc1[C@H]1CC[C@H](C(=O)N2CCN(CC3CCC4(CC3)CCN(C(=O)c3ccc(Cl)c(N5CCC(=O)NC5=O)c3)CC4)CC2)CC1", "note": "[Example 2, 1-(5-(9-((4-((1R,4R)-4-(4-(((R)-1-(3-amino-5-(trifluoromethyl)phenyl)ethyl)amino)-7-methoxy-2-methylquinazolin-6-yl)cyclohexane-1-carbonyl)piperazin-1-yl)methyl)-3-azaspiro[5.5]undecane-3-carbonyl)-2-chlorophenyl)dihydropyrimidine-2,4(1H,3H)-dione]", "values": [{"measurement": "IC50", "setting": "[1]", "result": "100 to 1000", "unit": "nM"}, {"measurement": "IC50", "setting": "[2]", "result": "15 to 30", "unit": "nM"}, {"measurement": "IC50", "setting": "KRAS-G12C/SOS1", "result": "≤ 15", "unit": "nM"}]}, {"smiles": "CNCc1ccccc1-c1csc([C@@H](C)Nc2nc(C)nc3cc(OC)c([C@H]4CC[C@H](C(=O)N5CCN(CC6CCC7(CC6)CCN(C(=O)c6ccc(OC)c(N8CCC(=O)NC8=O)c6)CC7)CC5)CC4)cc23)c1", "note": "[Example 73, 1-(2-methoxy-5-(9-((4-((1R,4R)-4-(7-methoxy-2-methyl-4-(((R)-1-(4-(2-((methylamino)methyl)phenyl)thien-2-yl)ethyl)amino)quinazolin-6-yl)cyclohexane-1-carbonyl)piperazin-1-yl)methyl)-3-azaspiro[5.5]undecane-3-carbonyl)phenyl)dihydropyrimidine-2,4(1H,3H)-dione]", "values": [{"measurement": "IC50", "setting": "[1]", "result": "100 to 1000", "unit": "nM"}, {"measurement": "IC50", "setting": "[2]", "result": "50 to 100", "unit": "nM"}]}, {"smiles": "COc1cc2nc(C)nc(N[C@H](C)c3cccc4c3CCS4(=O)=O)c2cc1[C@H]1CC[C@H](C(=O)N2CCN(CC3CCC4(CC3)CCN(C(=O)c3ccc(Cl)c(N5CCC(=O)NC5=O)c3)CC4)CC2)CC1", "note": "[Example 10, 1-(2-chloro-5-(9-((4-((1R,4R)-4-(4-(((R)-1-(1,1-dioxo-2,3-dihydrobenzo[b]thiophen-4-yl)ethyl)amino)-7-methoxy-2-methylquinazolin-6-yl)cyclohexane-1-carbonyl)piperazin-1-yl)methyl)-3-azaspiro[5.5]undecane-3-carbonyl)phenyl)dihydropyrimidine-2,4(1H,3H)-dione]", "values": [{"measurement": "IC50", "setting": "[1]", "result": "30 to 50", "unit": "nM"}, {"measurement": "IC50", "setting": "[2]", "result": "15 to 30", "unit": "nM"}]}, {"smiles": "COc1cc2nc(C)nc(N[C@H](C)c3cc(N)cc(C(F)(F)F)c3)c2cc1[C@H]1CC[C@H](C(=O)N2CCN(CCOCC3CCN(C(=O)c4ccc(Cl)c(N5CCC(=O)NC5=O)c4)CC3)CC2)CC1", "note": "[Example 33, 1-(5-(4-((2-(4-((1R,4R)-4-(4-(((R)-1-(3-amino-5-(trifluoromethyl)phenyl)ethyl)amino)-7-methoxy-2-methylquinazolin-6-yl)cyclohexane-1-carbonyl)piperazin-1-yl)ethoxy)methyl)piperidine-1-carbonyl)-2-chlorophenyl)dihydropyrimidine-2,4(1H,3H)-dione]", "values": [{"measurement": "IC50", "setting": "[1]", "result": "100 to 1000", "unit": "nM"}, {"measurement": "IC50", "setting": "[2]", "result": "50 to 100", "unit": "nM"}]}, {"smiles": "COc1cc2nc(C)nc(N[C@H](C)c3cc(N)cc(C(F)(F)F)c3)c2cc1[C@H]1CC[C@H](C(=O)N2CCN(CCC3CCC4(CC3)CCN(C(=O)c3ccc(Cl)c(N5CCC(=O)NC5=O)c3)CC4)CC2)CC1", "note": "[Example 1, 1-(5-(9-(2-(4-((1R,4R)-4-(4-(((R)-1-(3-amino-5-(trifluoromethyl)phenyl)ethyl)amino)-7-methoxy-2-methylquinazolin-6-yl)cyclohexane-1-carbonyl)piperazin-1-yl)ethyl)-3-azaspiro[5.5]undecane-3-carbonyl)-2-chlorophenyl)dihydropyrimidine-2,4(1H,3H)-dione]", "values": [{"measurement": "IC50", "setting": "[1]", "result": "15 to 30", "unit": "nM"}, {"measurement": "IC50", "setting": "[2]", "result": "30 to 50", "unit": "nM"}, {"measurement": "IC50", "setting": "KRAS-G12C/SOS1", "result": "15 to 30", "unit": "nM"}]}]}
